These results are taken from ChEMBL document CHEMBL4270588, “Bioactive heterocycles containing a 3,4,5-trimethoxyphenyl fragment exerting potent antiproliferative activity through microtubule destabilization” (Eur J Med Chem, 2018).

The source made the active and inactive calls. The rule behind the calls is not given here.

The subject of one test is ECa-109 cell line. Put plainly: Antiproliferative activity against human EC109 cells after 48 hrs by MTT assay. The format is functional, cell-based. The conditions noted are these: ECa-109, 48 h. In general terms: Formazan colour is commonly taken as a measure of viable cells.
A further test has as its system PC-3. Description: Antiproliferative activity against human PC3 cells after 48 hrs by MTT assay. As to conditions: PC-3, 48 h. The format is functional, cell-based.
For test [1], the species on record is Homo sapiens. Put plainly: Inhibition of EBI binding to beta-tubulin colchicine binding site in human MGC803 cells at 5 uM preincubated for 2 hrs followed by EBI addition and measured after 2 hrs by Western blot analysis. It is filed as cell-based. A general note: Immunoblotting shows a protein as a band on a membrane.
The test system of test [2] is MGC-803. Put plainly: Antiproliferative activity against human MGC803 cells after 48 hrs by MTT assay. It is filed as functional, cell-based. As to conditions: MGC-803, 48 h.
Test [3] addresses Tubulin. Put plainly: Inhibition of tubulin polymerization (unknown origin) by turbidimetric method. It is filed as protein-complex assay, Homo sapiens.
For the next test, the target named is Tubulin (Homo sapiens) (UniProt P68371+Q9H4B7+P0DPH7+P68366+Q13509+Q71U36+P04350+Q3ZCM7+P07437+P68363+Q9BQE3+Q6PEY2+Q13885+Q9BVA1+Q9BUF5). Put plainly: Inhibition of tubulin polymerization in human MGC803 cells assessed as depolymerization of interphase microtubules at 600 nM after 4 to 8 hrs by DAPI staining based microscopic analysis. It is filed as cell-based.

Test [4] concerns MGC-803. Put plainly: Induction of apoptosis in human MGC803 cells assessed as necrotic cells at 400 nM after 48 hrs by Annexin-V-FITC/propidium iodide staining based flow cytometry (reference value: 0.1%). It is filed as functional. In general terms: Flow cytometry measures light scatter and fluorescence of single cells or particles in a stream.
The test system of test [5] is MGC-803. Description: Disruption of mitochondrial membrane potential in human MGC803 cells assessed as collapse of the mitochondrial membrane potential at 400 nM after 48 hrs by JC1 staining based flow cytometry (reference value: 96.1%). The format is functional.
The test system of test [6] is MGC-803. Description: Cell cycle arrest in human MGC803 cells assessed as down regulation of CDK1 expression after 48 hrs by Western blot analysis. It is filed as functional, cell-based.
Test [7] has as its system MGC-803. Put plainly: Cell cycle arrest in human MGC803 cells assessed as accumulation at S phase at 200 nM after 48 hrs by propidium iodide staining based flow cytometry (reference value: 24.8%). It is filed as functional.
The test system of test [8] is MGC-803. Description: Induction of apoptosis in human MGC803 cells assessed as necrotic cells at 600 nM after 48 hrs by Annexin-V-FITC/propidium iodide staining based flow cytometry (reference value: 0.1%). The format is functional.
In test [9] the target is Tubulin. Put plainly: Inhibition of tubulin polymerization (unknown origin) measured every 5 mins by fluorescence assay. It is filed as protein-complex assay, Homo sapiens.
Test [10] has as its system MGC-803. Description: Induction of apoptosis in human MGC803 cells assessed as late apoptotic cells at 600 nM after 48 hrs by Annexin-V-FITC/propidium iodide staining based flow cytometry (reference value: 1%). The format is functional.
For test [11], the system named is MGC-803. Put plainly: Cell cycle arrest in human MGC803 cells assessed as accumulation at G2 phase at 200 nM after 48 hrs by propidium iodide staining based flow cytometry (reference value: 8.76%). The format is functional.
In test [12] the test system is MGC-803. Put plainly: Induction of apoptosis in human MGC803 cells assessed as early apoptotic cells at 400 nM after 48 hrs by Annexin-V-FITC/propidium iodide staining based flow cytometry (reference value: 2.5%). The format is functional.
The subject of test [13] is MGC-803. Put plainly: Induction of apoptosis in human MGC803 cells assessed as late apoptotic cells at 200 nM after 48 hrs by Annexin-V-FITC/propidium iodide staining based flow cytometry (reference value: 1%). The format is functional.
Test [14] concerns MGC-803. Description: Cell cycle arrest in human MGC803 cells assessed as accumulation at G1 phase at 200 nM after 48 hrs by propidium iodide staining based flow cytometry (reference value: 62.61%). The format is functional.
Test [15] concerns MGC-803. Put plainly: Disruption of mitochondrial membrane potential in human MGC803 cells assessed as collapse of the mitochondrial membrane potential at 200 nM after 48 hrs by JC1 staining based flow cytometry (reference value: 96.1%). The format is functional.
The subject of test [16] is MGC-803. Description: Disruption of mitochondrial membrane potential in human MGC803 cells after 48 hrs by JC1 staining based flow cytometry. The format is functional, cell-based.
The subject of test [17] is MGC-803. Put plainly: Cell cycle arrest in human MGC803 cells assessed as accumulation at S phase at 400 nM after 48 hrs by propidium iodide staining based flow cytometry (reference value: 24.8%). The format is functional.
Test [18] deals with MGC-803. Description: Induction of apoptosis in human MGC803 cells assessed as decrease in PARP level after 48 hrs by Western blot analysis. It is filed as functional, cell-based.
In test [19] the test system is MGC-803. Put plainly: Disruption of mitochondrial membrane potential in human MGC803 cells assessed as intact mitochondrial membrane at 600 nM after 48 hrs by JC1 staining based flow cytometry (reference value: 3.9%). The format is functional.
For test [20], the system named is MGC-803. Put plainly: Disruption of mitochondrial membrane potential in human MGC803 cells assessed as intact mitochondrial membrane at 400 nM after 48 hrs by JC1 staining based flow cytometry (reference value: 3.9%). It is filed as functional.
Test [21] has as its system MGC-803. Description: Induction of apoptosis in human MGC803 cells assessed as early apoptotic cells at 600 nM after 48 hrs by Annexin-V-FITC/propidium iodide staining based flow cytometry (reference value: 2.5%). It is filed as functional.
Test [22] deals with MGC-803. Description: Induction of apoptosis in human MGC803 cells assessed as necrotic cells at 200 nM after 48 hrs by Annexin-V-FITC/propidium iodide staining based flow cytometry (reference value: 0.1%). It is filed as functional.
Test [23] relates to MGC-803. Put plainly: Cell cycle arrest in human MGC803 cells assessed as accumulation at G2 phase at 400 nM after 48 hrs by propidium iodide staining based flow cytometry (reference value: 8.76%). The format is functional.
For test [24], the system named is MGC-803. Put plainly: Induction of apoptosis in human MGC803 cells assessed as live cells at 400 nM after 48 hrs by Annexin-V-FITC/propidium iodide staining based flow cytometry (reference value: 96.4%). The format is functional.
Test [25] relates to MGC-803. Description: Induction of apoptosis in human MGC803 cells assessed as live cells at 200 nM after 48 hrs by Annexin-V-FITC/propidium iodide staining based flow cytometry (reference value: 96.4%). The format is functional.
The test system of test [26] is MGC-803. Description: Cell cycle arrest in human MGC803 cells assessed as down regulation of cyclin B1 expression after 48 hrs by Western blot analysis. It is filed as functional, cell-based.
Test [27] relates to MGC-803. Description: Induction of apoptosis in human MGC803 cells assessed as decrease in XIAP level after 48 hrs by Western blot analysis. The format is functional, cell-based.
Test [28] deals with MGC-803. Description: Induction of apoptosis in human MGC803 cells assessed as decrease in Bcl2 level after 48 hrs by Western blot analysis. It is filed as functional, cell-based.
Test [29] relates to MGC-803. Description: Cell cycle arrest in human MGC803 cells assessed as accumulation at G1 phase at 400 nM after 48 hrs by propidium iodide staining based flow cytometry (reference value: 62.61%). The format is functional.
Test [30] deals with MGC-803. Description: Disruption of mitochondrial membrane potential in human MGC803 cells assessed as intact mitochondrial membrane at 200 nM after 48 hrs by JC1 staining based flow cytometry (reference value: 3.9%). It is filed as functional.
For test [31], the species on record is Homo sapiens. Put plainly: Inhibition of EBI binding to beta-tubulin colchicine binding site in human MGC803 cells at […] preincubated for 2 hrs followed by EBI addition and measured after 2 hrs by Western blot analysis. It is filed as cell-based.
Test [32] deals with MGC-803. Description: Induction of apoptosis in human MGC803 cells assessed as late apoptotic cells at 400 nM after 48 hrs by Annexin-V-FITC/propidium iodide staining based flow cytometry (reference value: 1%). The format is functional.
The subject of test [33] is MGC-803. Put plainly: Disruption of mitochondrial membrane potential in human MGC803 cells assessed as collapse of the mitochondrial membrane potential at 600 nM after 48 hrs by JC1 staining based flow cytometry (reference value: 96.1%). It is filed as functional.
Test [34] relates to MGC-803. Description: Induction of apoptosis in human MGC803 cells assessed as early apoptotic cells at 200 nM after 48 hrs by Annexin-V-FITC/propidium iodide staining based flow cytometry (reference value: 2.5%). It is filed as functional.
In test [35] the test system is MGC-803. Put plainly: Induction of apoptosis in human MGC803 cells assessed as live cells at 600 nM after 48 hrs by Annexin-V-FITC/propidium iodide staining based flow cytometry (reference value: 96.4%). The format is functional.

A word on the IC50: it is the concentration needed to halve the response being measured. Consider `COc1cc2c(c(OC)c1OC)-c1ccc(OC)c(=O)cc1[C@@H](NC(C)=O)CC2` [COLCHICINE], for which the concentration for half-maximal inhibition (IC50) with ECa-109 cell line amounted to 1.24 µM; in the test on PC-3, 0.13 µM; in the test on MGC-803 [2], 0.177 µM. In the test filed under Homo sapiens [1], the inhibition result is “Active”.
As to `Cc1ccc(S(=O)(=O)NCc2cn(Cc3cccc(Oc4ccccc4)c3)nn2)cc1`, half-maximal inhibition on Tubulin [3] (IC50) was put at 2.41 µM.
As to `COc1ccc(CN(C(=O)CCCCSc2nc3ccccc3o2)c2cc(OC)c(OC)c(OC)c2)cc1`, the concentration for half-maximal inhibition (IC50) with ECa-109 cell line came to 7.65 µM; with PC-3, 45.6 µM; in the test on MGC-803 [2], 1.36 µM.
`COc1ccc(CN(C(=O)CSc2nnnn2C)c2cc(OC)c(OC)c(OC)c2)cc1`: the results for the IC50 in the test with ECa-109 cell line, in the test with PC-3 and in the test with MGC-803 [2] were 5.54 µM, 10.5 µM and 2.49 µM, respectively.
For `COc1ccc(CN(C(=O)CCCSc2nc3ccccc3o2)c2cc(OC)c(OC)c(OC)c2)cc1`, the values for the half-inhibitory concentration (IC50) in the test on ECa-109 cell line, with PC-3 and in the test with MGC-803 [2] were 11 µM, 32.7 µM and 1.29 µM, respectively.
Regarding `COc1ccc(CN(C(=O)CSc2nc3ccccc3[nH]2)c2cc(OC)c(OC)c(OC)c2)cc1`, the IC50 in the test on ECa-109 cell line turned out to be 42.6 µM; in the test on PC-3 it was 14.3 µM; in the test with MGC-803 [2], 1.23 µM.
The like results for `COc1ccc(CN(C(=O)CSc2nc3ccc(OC)cc3s2)c2cc(OC)c(OC)c(OC)c2)cc1` were, in that order, > 80 µM, 20.2 µM and 1.27 µM.
As for `COc1ccc(CN(C(=O)CSc2nc3ccccc3o2)c2cc(OC)c(OC)c(OC)c2)cc1`, the IC50 worked out at 24.8 µM in the test with ECa-109 cell line, 3.35 µM against Tubulin [9], 3.53 µM with PC-3 and 0.45 µM in the test with MGC-803 [2]. Further, the inhibition result on Tubulin (Homo sapiens) and in the test listed under Homo sapiens [31] was “Active” in each case. For the same molecule, the Activity was 1.9% in the test with MGC-803 [4]; 39.9% in the test on MGC-803 [5]; “Dose-dependent effect” in the test on MGC-803 [6]; 23.29% with MGC-803 [7]; 3.1% in the test with MGC-803 [8]; 30.3% in the test on MGC-803 [10]. For the same molecule, the Activity with MGC-803 [11] is 12.13%; in the test with MGC-803 [12], 4.1%; in the test with MGC-803 [13], 1.1%; with MGC-803 [14] it was 61.68%; with MGC-803 [15], 3.9%; with MGC-803 [16], “Dose-dependent effect”. Moreover, the Activity in the test with MGC-803 [17] was 22.46%; in the test with MGC-803 [18], “Dose-dependent effect”; with MGC-803 [19], 47.2%; with MGC-803 [20], 60.1%; in the test with MGC-803 [21], 4.9%; with MGC-803 [22], 0.1%. The Activity in the test with MGC-803 [23] is 20.71%; in the test on MGC-803 [24], 89.7%; in the test with MGC-803 [25], 95.9%; in the test with MGC-803 [26], “Dose-dependent effect”; in the test with MGC-803 [27], “Dose-dependent effect”; in the test with MGC-803 [28] it was “Dose-dependent effect”. Also, the Activity in the test with MGC-803 [29] is 52.55%; in the test with MGC-803 [30] it was 96.1%; in the test on MGC-803 [32], 4.3%; in the test on MGC-803 [33], 52.8%; with MGC-803 [34] it was 2.8%; in the test with MGC-803 [35] it was 61.7%.
`COc1ccc(CN(C(=O)CCSc2nc3ccccc3o2)c2cc(OC)c(OC)c(OC)c2)cc1`: the IC50 was 12.6 µM in the test on ECa-109 cell line, 20.2 µM in the test on PC-3 and 0.64 µM in the test with MGC-803 [2].
Taken in the same sequence, the figures for `COc1ccc(CN(C(=O)CSc2nncs2)c2cc(OC)c(OC)c(OC)c2)cc1` were 9.84 µM, 5.53 µM and 1.15 µM.
The like results for `COc1ccc(CN(C(=O)CSc2ccccn2)c2cc(OC)c(OC)c(OC)c2)cc1` were, in that order, 16 µM, 7.51 µM and 2.41 µM.
